Measurements published in PubChem BioAssay AID489041 (Sanford-Burnham Center for Chemical Genomics, 2010).
Calls of active or inactive are those of the source. The rule behind the calls is not given here.

Tested on: HEK-293T NF-kB luciferase reporter counterscreen, luminescence
Experiment: NF-kB reporter inhibition in HEK-293T, dose response, counter-screen for T-cell antigen receptor NF-kB inhibitors, HEK-293T cells, luminescence (AID 489041)

Compound | IC50
CCCCc1ccc(NC(=O)c2ccc(N(C)S(C)(=O)=O)cc2)cc1 | > 80000 nM (inactive)
Cc1ncoc1C(=O)NC1CCCc2c1cnn2-c1ccc(C(C)(C)C)cc1 (stereo not given) | 3410 nM
CC(C)(C)c1nnc(N/N=C/c2ccccc2O)n(N)c1=O | 28000 nM (inactive)
CCCCCCCCCn1c2c(c(=N)c3c1CCC3)CCCC2 | 680 nM
COc1ccc(OC)c(-c2nnc3n2N=C(c2ccc(OC)c(OC4CCCC4)c2)CS3)c1 | 3090 nM
CCCCC(=O)NC(c1ccc(Cl)cc1Cl)c1ccc2cccnc2c1O (stereo not given) | > 80000 nM (inactive)
CCCC(=O)Nc1nc2ccc(NC(=O)c3c(F)c(F)c(OC)c(F)c3F)cc2s1 | > 80000 nM (inactive)
CCCC[C@@H](C)C[C@@H](C)C(=O)N(C)[C@@H](CC(C)C)C(=O)N[C@H](C(=O)N(C)[C@H](C(=O)N1C[C@@H](O)C[C@H]1C(=O)N1C(=O)C=C[C@@H]1C)C(C)C)C(C)OC(C)=O (stereo not given in full) | < 160 nM
CCCCc1ccc(NC(=O)C(=O)NCCN2CCN(Cc3ccc([N+](=O)[O-])cc3)CC2)cc1 | 400 nM
COC(=O)c1ccccc1NC1=C/C(=N\S(=O)(=O)c2cccs2)c2ccccc2C1=O | 1040 nM
CCCCCCCn1c2c(c(=N)c3ccccc31)CCC2 | 990 nM
Cc1ccccc1NS(=O)(=O)c1ccc(N2CCCC2=O)cc1 | 42200 nM (inactive)
COc1cc(NS(C)(=O)=O)ccc1Nc1c2ccccc2nc2ccccc12 | > 80000 nM (inactive)
CCCCN=C[C@]12CCC(O)CC1(O)CCC1[C@@H]2CC[C@]2(C)[C@H](C3C=CC(=O)O3)CCC12O (stereo not given in full) | 340 nM
COc1ccc(NC(=O)/C(Cl)=C(/Cl)S(=O)Cc2ccc(C)cc2)cn1 (stereo not given) | 5500 nM
COc1cccc(-c2cc(C(=O)Nc3cc(C)n(Cc4ccc(Cl)cc4)n3)no2)c1 | 4240 nM
COc1ccc(NC(=O)/C(Cl)=C(/Cl)S(=O)Cc2ccccc2Cl)cn1 (stereo not given) | 3950 nM
O=C(NCc1cccs1)C1CCN(c2ccc(S(=O)(=O)N3CCOCC3)cc2Cl)CC1 | 8560 nM
CC(C)(C)C(=O)Nc1ccc(NC(=O)c2ccco2)nc1 | 270 nM
O=[N+]([O-])c1ccc(Sc2ccc(Cl)c(Cl)c2)nc1 | 64000 nM (inactive)
C[C@@H]1O[C@@H](O[C@H]2C[C@@H](O)[C@]3(CO)[C@H]4[C@H](O)C[C@]5(C)[C@@H](C6COC(=O)C6)CC[C@]5(O)[C@@H]4CC[C@]3(O)C2)[C@H](O)[C@H](O)[C@H]1O (stereo not given in full) | 870 nM
Cc1ccc(C(=O)Nc2cccc(C(=O)O)c2)cc1 | 4100 nM
CCC(=O)NC(c1cccs1)c1ccc2cccnc2c1O (stereo not given) | 1610 nM
CCOC(=O)c1[nH]c2c(c1C)C(=O)CC(c1ccco1)C2 (stereo not given) | 4380 nM

Compound | IC50
COc1cc2nc(CN3CC=C(c4ccccc4)CC3)[nH]c(=O)c2cc1OC | 2500 nM
CCn1c2ccccc2c2cc(NC(=O)c3cc(OC)c(OC)c(OC)c3)ccc21 | 3970 nM
Cc1ccc(NC(=O)c2cc3ccccc3oc2=O)cc1S(=O)(=O)N(C)C | < 160 nM
O=C1C=C(c2ccc3ncccc3c2)C[C@@H](c2ccc3c(c2)OCO3)C1 | 11100 nM
O=C(Nc1ccncc1)C1CCCN(S(=O)(=O)c2cccc3cccnc23)C1 (stereo not given) | 35100 nM (inactive)
CCCCCCCCCCCCCCCC[n+]1ccc(C(N)=O)cc1 | 46700 nM (inactive)
CN=c1scc(-c2cccs2)n1/N=C/c1ccccc1O | < 160 nM
CCN(c1ccccc1)S(=O)(=O)c1ccc(C(=O)NC2CCN(Cc3ccccc3)CC2)cc1 | 3140 nM
Cc1cccc(N2CCN(C(=O)c3c(-c4ccccc4)noc3C)CC2)c1C | 11100 nM
CCCCCN1C=CC(=C2C(=O)c3ccccc3C2=O)C=C1 | 1900 nM
COc1ccccc1N1CCN(C(=O)c2ccc(-c3ccc(Cl)cc3)o2)CC1 | 10100 nM
Cc1c(C)c2ccc(OCC(=O)Nc3ccccn3)c(C)c2oc1=O | 1780 nM
COc1ccc(C(=O)/C(C#N)=N/Nc2ccc([N+](=O)[O-])cc2)cc1 | 320 nM
Cc1ccc(C(=O)Nc2cnc3ccccc3c2)cc1 | 830 nM
COc1ccc(S(=O)(=O)/N=C2\C=C(Nc3ccc(O)cc3)C(=O)c3ccccc32)cc1 | 1030 nM
CSC1=NC(C(Cl)(Cl)Cl)N=C(c2ccc(C)cc2)N1 (stereo not given) | 12500 nM
CC(=O)N(C)C1=C(N2CCOCC2)C(=O)c2ccccc2C1=O | 5290 nM
Clc1ccc2c(c1)C(C1=NCCN1)c1ccccc1CS2 (stereo not given) | > 80000 nM (inactive)
C/C(=N\NC(=O)c1ccc(Cl)c(Cl)c1)c1ccccn1 | > 80000 nM (inactive)
Cc1ccc(O)c(NC(=O)c2cc(-c3ccccc3)on2)c1 | > 80000 nM (inactive)
COc1cc([C@@H]2c3cc4c(cc3[C@H](O)[C@H]3COC(=O)[C@H]23)OCO4)cc(OC)c1OC | < 160 nM
COC(=O)c1[nH]c2c(c1C)C(=O)CC(c1cccc(OC)c1)C2 (stereo not given) | 2580 nM
CCN1C/C(=C/c2ccc(OC)c(O)c2)C(=O)/C(=C/c2ccc(OC)c(O)c2)C1 | 39000 nM (inactive)
CC(C)n1c(CN(C)Cc2ccccc2)nc2c1c(=O)n(C)c(=O)n2C | 2880 nM

Compound | IC50
CN[C@H]1CCc2cc(OC)c(OC)c(OC)c2-c2ccc(OC)c(=O)cc21 | < 160 nM
Cc1ccc(NS(=O)(=O)c2ccc(-c3cnc(C4CC4)o3)cc2)c(C)c1 | 1470 nM
COc1ccc2c(c1)C(=O)N1[C@H]3c4cc(Br)ccc4OC[C@@H]3[C@H](c3ccccc3)[C@]1(C)C(=O)N2 | > 80000 nM (inactive)
CC(=O)O[C@@]12CO[C@@H]1C[C@H](O)[C@@]1(C)C(=O)[C@H](O)C3=C(C)[C@@H](OC(=O)[C@H](O)[C@@H](NC(=O)c4ccccc4)c4ccccc4)C[C@@](O)([C@@H](OC(=O)c4ccccc4)C12)C3(C)C (stereo not given in full) | > 80000 nM (inactive)
C[C@]12CC[C@H](O)C[C@H]1CC[C@@H]1[C@@H]2C[C@@H](O)[C@]2(C)[C@@H](C3=CC(=O)OC3)CC[C@]12O | 580 nM
C[C@]12CC[C@H]3[C@@H](CC[C@]4(O)C[C@@H](O)CC[C@]34C=O)[C@@]1(O)CC[C@@H]2C1=CC(=O)OC1 | 340 nM
CCOC(=O)Nc1nc(-c2ccccc2)c(C(=O)c2ccccc2)s1 | > 80000 nM (inactive)
Cc1c(C(=O)OC2CCCC2)[nH]c2c1C(=O)CC(c1ccco1)C2 (stereo not given) | 450 nM
O=S1(=O)Nc2c(ccc3cccnc23)-c2ccccc21 | 280 nM
CCOc1ccc(S(=O)(=O)N2c3ccccc3CC2C)cc1 (stereo not given) | 5980 nM
COc1cc(-c2noc(C)c2-c2ccc3[nH]ccc3c2)cc(OC)c1OC | 2450 nM
O=S(=O)(C/C(=C/CO)S(=O)(=O)c1ccccc1)c1ccccc1 | 6810 nM
COc1ccc(C(=O)Nc2ccc3[nH]c(-c4cccc(OC)c4)cc(=O)c3c2)cc1 | > 80000 nM (inactive)
Cc1cc(NC(=O)COC(=O)c2ccc(S(=O)(=O)N3CCCc4ccccc43)cc2)no1 | 28300 nM (inactive)
CC(Oc1ccc(Cl)cc1Cl)c1nc(-c2ccc(NC(=O)c3ccncc3)cc2)no1 (stereo not given) | 2390 nM
O=C(Nc1ccn(Cc2ccccc2F)n1)c1ccc(COc2ccc(Br)cc2)cc1 | 1550 nM
COc1ccc(NC(=O)C(=O)NCC2CCCN2S(=O)(=O)c2cccs2)cc1 (stereo not given) | 21000 nM (inactive)
CCOc1ccc2c(c1)OC(c1ccc(C)cc1)(C(F)(F)F)NC2=O (stereo not given) | 5570 nM
CCN(CC)c1ccc2nc3ccccc3[n+](CC)c2c1 | 2010 nM
Cc1csc2ncnc(NC3CCN(Cc4ccccc4)CC3)c12 | 2220 nM
COc1ccc(/C=N/NC(=O)COc2ccccc2-c2ccccc2)cc1 | 4750 nM
Cc1[nH]n(-c2ccccc2)c(=O)c1/C=N/Nc1nncc(-c2ccccc2)n1 | 200 nM
